Results reported in article PMC5803267, “A small molecule inhibitor of Rheb selectively targets mTORC1 signaling” (Nature Communications, 2018).

Assays:
[1] = target: T1, human Rheb protein (1–169) (Homo sapiens, UniProt Q15382); experiment: Isothermal calorimetry (ITC) of binding to Rheb
T1 construct: human Rheb protein (1–169) was purified from BL21 (DE3) Escherichia coli; His-Smt (His-SUMO) (N, cleaved yes); made in house; host or cells: BL21 (DE3) Escherichia coli
Method: For the STD-NMR fragment-based screen, HMQC-NMR, ITC, and crystallography, human Rheb protein (1–169) was purified from BL21 (DE3) Escherichia coli using a His-Smt-Rheb expression vector. The cell paste was lysed in lysis buffer (50 mM HEPES pH 7.5, 0.5 M NaCl, 5% Glycerol, 1% CHAPS, EDTA-free protease inhibitor tablets, lysozyme to 1 mg mL^−1, benzonase 250 U), sonicated, and purified on a HiTrap Ni Chelating Column (GE Healthcare) using the following buffer: 50 mM HEPES pH 7.5, 0.5 M NaCl, 5% Glycerol, and imidazole increasing in concentration from 5 mM to 500 mM. The His-Smt tag was cleaved using a Ulp1 enzyme and dialyzed into 50 mM HEPES pH 7.5, 0.5 M NaCl, 5% glycerol. The resultant protein was again purified on a Ni Chelating column to remove the Ulp1 enzyme and His-Smt tag and then purified by size exclusion chromatography on a Sephacryl S-100 26/60 column into the following final buffer: 20 mM NaPhos pH 7.0, 100 mM NaCl, 5 mM MgCl2, 2 mM TCEP. For HMQC NMR, ^15N-labeled Rheb was generated using the same protocol but grown in minimal medium supplemented with ^15N-labeled amino acids.
Supplementary Figure 8. Measurement of binding constant of NR1 with Rheb using isothermal
(1 picture or pasted object on this page, not shown here)

[2] = test system: T389pS6K1 (mTORC1 activity) in MCF-7 cells; experiment: T389pS6K1 AlphaLISA assay in MCF-7 cells; assay type: cell-based, human
Text: (§1) We next evaluated the activity of NR1 in cell culture. Selective inhibition of mTORC1 in cells produces a specific signaling signature characterized by a reduction in phosphorylation of the mTORC1 substrates S6K1 and 4E-BP1 and increase in phosphorylation of AKT, catalyzed by mTORC2. This distinctive profile reflects the relief of a feedback loop where active S6K1 directly phosphorylates IRS1, resulting in the degradation of IRS1 and subsequent reduction of growth factor signaling from RTKs to downstream effectors such as AKT[1]. Conversely, reduction in ^T389pS6K1 is expected to lead to an increase in ^S473pAKT levels. We used AlphaLISA assays to detect ^T389pS6K1 and ^S473pAKT in MCF-7 cells. […]
Evaluation of NR1 in MCF-7 under replete conditions. […] The indicated phosphoproteins were detected using AlphaLISA assays for T389pS6K1 (reflecting mTORC1 activity) and S473pAKT (reflecting mTORC2 activity). […]
The compounds were added to the kinase reaction mixture by Acoustic technology (Echo550; nanoliter range) and incubated for 20 min at room temperature before the addition of 100 µM 33P-ATP. The reaction was incubated for 2 h at room temperature, and kinase activity was detected by a P81 filter- […]
AlphaLISA assays. […] The AlphaLISA protocol was performed in 384-well plates as instructed by Perkin Elmer, and the plates were read on an EnVision plate reader. […]

pS6K1 in MCF-7 cells = experiment: Insulin-stimulated mTORC1 signaling Western blot in MCF-7 cells; assay type: cell-based, human; conditions: MCF-7, 10 µM NR1
Text: as §1, with “cells. During the development of the assays, we noticed that ^T389pS6K1 was more responsive to our compound series than ^T37/46p4E-BP1, which may be due to differences in mTORC1 substrate classes in a cellular setting.” for “cells.”
MCF-7 cells were serum-starved for 16 h and treated with compound for 90 min before cell lysis and Western blot analysis. […] For EGF-stimulated cells, 100 ng mL^−1 EGF was added 10 min before cell lysis. c Rap1 activity was detected in lysates loaded in vitro with either GDP or GTPγS and treated with NR1 at the indicated concentrations. […] Bound Rap1 was detected by Western blot. d Evaluation of NR1 in a LAM patient-derived cell line (TRI102) under replete and serum-starved conditions. […]

T1 sequence (Q15382 1-169): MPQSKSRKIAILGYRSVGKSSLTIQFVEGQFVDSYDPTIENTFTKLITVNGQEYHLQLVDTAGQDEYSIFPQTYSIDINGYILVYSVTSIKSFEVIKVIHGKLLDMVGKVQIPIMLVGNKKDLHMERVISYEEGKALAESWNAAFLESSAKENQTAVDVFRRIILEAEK

## CN(C)C(=O)c1ccc(Cn2c(C(=O)O)cc3c(Br)cc(Sc4ccc(Cl)c(Cl)c4)cc32)cc1 [NR1, 4-bromo-6-(3,4-dichlorophenylthio)-1-(4-(dimethylcarbamoyl)benzyl)-1H-indole-2-carboxylic acid]
[1]
  Kd: 1500 nM
  ΔH of binding: –0.315 kcal mol^−1
[2]; Homo sapiens, MCF7, inhibition of S6K phosphorylation in cells, read-out: potency in cellular assays
  IC50: 2000 nM
[2]; MCF-7, replete conditions, 120 min, dose-dependent
  phosphorylation of T389pS6K1: inhibited the phosphorylation
pS6K1 in MCF-7 cells
  S6K1 phosphorylation compared with rapamycin: does not inhibit S6K1 phosphorylation as well as 100 nM rapamycin
